In US20120171123A1, “USES AND COMPOSITIONS FOR TREATMENT OF RHEUMATOID ARTHRITIS” (priority 2006, published 2012):
“And” between values parts separate entries of the source, which are not always exact repeats. Identical values can stand only once.

Test system: patients with active rheumatoid arthritis
Assay: Study A: EULAR response (moderate/good)
Format: in vivo, human
Conditions: for Good EULAR response (%) / Moderate EULAR response (%): LOCF
Source text: In one embodiment, the invention provides a method for determining the efficacy of a TNFα inhibitor, including a human TNFα antibody, for treating RA in a subject, using the EULAR response of a subject or patient population. European League Against Rheumatism (EULAR) Response Criteria uses a Disease Activity Score (DAS) for defining response. To be classified as responders, patients should have a significant change in DAS and also low current disease activity. Response is defined as both: (a) change in disease activity from baseline and (b) the level of disease activity reached during follow-up. Criteria used to define DAS include: Ritchie articular index, swollen joint count (44-joint count), erythrocyte sedimentation rate, and […]. A modified version of the DAS criteria, DAS28, uses a 28-joint count for swollen and tender joints. Response is defined as a combination of a significant change from baseline and the level of disease activity attained. Good response is defined as a significant decrease in DAS (>1.2) and a low level of disease activity (< or =2.4). Non-response is defined as a decrease < or =0.6, or a decrease >0.6 and < or =1.2 with an attained DAS >3.7. Any other scores are regarded as moderate responses. Thus, three categories are defined: good, moderate, and non-responders. For details of EULAR criteria see Van Gestel et al. (1996) 39(1):34-40, incorporated by reference herein.
The study design included a 12 week open label treatment period followed by a continuation period examining safety and efficacy. […] The main inclusion criteria for the study were the following: males and females ≧18 years; rheumatoid arthritis (RA; defined by ACR criteria) for ≧3 months; unsatisfactory response (or intolerance) to at least one prior DMARD; and patients with active RA (DAS28≧3.2). Baseline demographics and disease severity is shown below in Table 1:
Efficacy of adalimumab treatment was determined by examining signs and symptoms of the patients. Various assays were used to determine efficacy, including ACR response, EULAR response, TJC and SJC count, and DAS28.
The objective of this study was to evaluate the impact of prior biologic therapies, in particular TNF-antagonists etanercept (ETA) and infliximab (INF), on key efficacy parameters of adalimumab therapy in patients with long-standing RA in clinical practice. To evaluate the impact of prior biological therapies, patients with moderate to severe RA enrolled at 450 sites in 11 European countries plus Australia (Study A). Patients with moderate to severe RA and an inadequate response to prior DMARD therapies were enrolled in a 12-week open-label study with an optional extension phase. […] Patients with previous biologic treatment must have received the last administration at least 8 weeks before enrollment Routine safety and efficacy data were collected at weeks 2, 6, and 12, and every 8 weeks in the extension phase. Efficacy parameters included ACR20, ACR50, ACR70, EULAR Response, HAQ, tender and swollen joint count (TJC28/SJC28), and DAS28. […] For this interim analysis, efficacy outcomes were evaluated after 12 weeks of therapy per the number and type of prior biologics used: None, any (ETA, INF, anakinra), ETA only, INF only, or ETA and INF but not anakinra.
Patients with long-standing, moderate to severe RA were enrolled in Study A at 450 sites in 12 different countries. The study design for Study A is outlined in FIG. 21. […] Previous treatment with other biologics was allowed up to 8 weeks before enrollment. Patients met the following inclusion criteria: Age ≧18 years; RA (defined by American College of Rheumatology criteria) for ≧3 months; active, moderate to severe RA (Disease Activity Score (DAS28)≧3.2); unsatisfactory response or intolerance to at least one prior DMARD, including biologics. Efficacy assessments were performed at weeks 0 (baseline), 2, 6, and 12. […]

[1] = Week 12, No prior ETA and/or INF (n=5711)
[2] = Week 12, Prior ETA and/or INF (n=899)
[3] = Week 12, concomitant Cq/Hcq + mtx (n=153)
[4] = Week 12, concomitant LEF only (n=557)
[5] = Week 12, concomitant MTX + LEF (n=123)
[6] = Week 12, concomitant MTX only (n=1561)
[7] = Week 12, concomitant QC/HQC (n=85)
[8] = Week 12, concomitant SSZ only (n=89)
[9] = Wk 12, concomitant MTX Im 15 mg (N=76), no other DMARD
[10] = Wk 12, concomitant MTX Iv 15 mg (N=23), no other DMARD
[11] = Wk 12, concomitant MTX Sc 15 mg (N=37), no other DMARD
[12] = Wk 12, concomitant MTX oral 15 mg (N=405), no other DMARD
[13] = Wk 12, concomitant MTX oral ≦7.5 (N=127), no other DMARD
[14] = Wk 12, concomitant MTX oral ≧20 mg (N=216), no other DMARD
[15] = week 12, concomitant hydroxychloroquine exclusively
[16] = week 12, concomitant leflunomide exclusively
[17] = week 12, concomitant mtx exclusively
[18] = week 12, concomitant sulfasalazine exclusively
[19] = week 12, prior biologic: ETA + INF

adalimumab: human anti-TNF mAb (HUMIRA, Abbott Laboratories), described in U.S. Pat. No. 6,090,382 as D2E7
Good EULAR response (12 weeks, N=2008 analysis): 34% | Moderate EULAR response (12 weeks, N=2008 analysis): 82% | Moderate EULAR response (12 weeks, no prior response to ETA and INF): 50% | Good EULAR response (%) (Week 12): 32% | Moderate EULAR response (%) (Week 12): 81% | Good EULAR [1]: 35 % of patients | Moderate EULAR [1]: 84 % of patients | Good EULAR [2]: 23 % of patients | Moderate EULAR [2]: 76 % of patients | Good EULAR [3]: 40 % of patients | Moderate EULAR [3]: 88 % of patients | Good EULAR response [4]: 31% | Moderate EULAR response [4]: 79% | Good EULAR response [5]: 29% | Moderate EULAR response [5]: 86% | Good EULAR response (Week 12, concomitant MTX + SSZ): 41% | Moderate EULAR response (Week 12, concomitant MTX + SSZ): 89% | Good EULAR response [6]: 39% | Moderate EULAR response [6]: 84% | Good EULAR response [7]: 25% | Moderate EULAR response [7]: 85% | Good EULAR response [8]: 39% | Moderate EULAR response [8]: 75% | Good EULAR response (%) (Week 28): 37% | Moderate EULAR response (%) (Week 28): 81% | Good EULAR response (%) (Week 36): 37% | Moderate EULAR response (%) (Week 36): 82% | Good EULAR response (%) (Week 52): 38% | Moderate EULAR response (%) (Week 52): 82% | Good EULAR response [9]: 38% | Moderate EULAR response [9]: 80% | Good EULAR response [10]: 41% | Moderate EULAR response [10]: 86% | Good EULAR response [11]: 25% | Moderate EULAR response [11]: 86% | Good EULAR response [12]: 39% | Moderate EULAR response [12]: 86% | Good EULAR response [13]: 36% | Moderate EULAR response [13]: 84% | Good EULAR response [14]: 50% | Moderate EULAR response [14]: 89% | at least a Moderate EULAR response (week 2, French patients): 64% | Good EULAR response (week 12, 1 prior biologic): 25% | Moderate EULAR response (week 12, 1 prior biologic): 78% | Good EULAR response (week 12, 2 prior biologics): 11% | Moderate EULAR response (week 12, 2 prior biologics): 76% | Good EULAR response (week 12, 3 prior biologics): 8% | Moderate EULAR response (week 12, 3 prior biologics): 75% | at least a Moderate EULAR response (week 12, French patients): 80% | Good EULAR response (week 12, all patients): 34% | Moderate EULAR response (week 12, all patients): 83% | Good EULAR [15]: 25 % of patients | Moderate EULAR [15]: 75 % of patients | Good EULAR [16]: 31 % of patients | Moderate EULAR [16]: 79 % of patients | Good EULAR [17]: 39 % of patients | Moderate EULAR [17]: 84 % of patients | Good EULAR [18]: 31 % of patients | Moderate EULAR [18]: 79 % of patients | Good EULAR response (week 12, no prior biologic): 34% | Moderate EULAR response (week 12, no prior biologic): 81% | Good EULAR (week 12, prior anakinra): 36 % of patients | Moderate EULAR (week 12, prior anakinra): 75 % of patients | Good EULAR (week 12, prior biologic (any)): 22 % of patients | Moderate EULAR (week 12, prior biologic (any)): 77 % of patients | Good EULAR response (week 12, prior etanercept only): 25% and 24% | Moderate EULAR response (week 12, prior etanercept only): 76% | Good EULAR response (week 12, prior infliximab only): 22% | Moderate EULAR response (week 12, prior infliximab only): 80% | Good EULAR (week 12, prior biologic: Any): 23 % of patients | Moderate EULAR (week 12, prior biologic: Any): 75 % of patients | Good EULAR (week 12, prior biologic: ETA): 21 % of patients | Moderate EULAR (week 12, prior biologic: ETA): 74 % of patients | Good EULAR [19]: 12 % of patients | Moderate EULAR [19]: 61 % of patients | Good EULAR (week 12, prior biologic: INF): 25 % of patients | Moderate EULAR (week 12, prior biologic: INF): 78 % of patients | Good EULAR (week 12, prior biologic: None): 39 % of patients | Moderate EULAR (week 12, prior biologic: None): 82 % of patients
